The values below come from patent publication US20210186930A1, “Methods of Treating Renal Disease Associated With Chronic Kidney Disease Such as Alport Syndrome” (UNIVERSITY OF MIAMI, priority 2018, published 2021).

“Also recorded” adds a separate entry of the source.

The test system of one series is human podocytes. Nature of the series: Collagen treatment of human podocytes: lipid content and free fatty acid uptake (FIG. 1). It is filed as cell-based. The method, then:
(§1) Differentiated human podocytes were serum starved for 16 hours followed by 18 hours treatment with 50 μg/mL collagen I (Corning), collagen II (Discoverx), and collagen IV (Sigma Aldrich)
Lipid content determination: Following collagen treatment, podocyte lipid content was assessed after fixation with PFA and staining with Bodipy 493/503 and Cell Mask Blue (Invitrogen). The Opera High Content Screening system and Acapella Image Analysis software was used to determine the number of Bodipy 493/503 positive lipid droplets per cell. Triglyceride content was assessed using the Triglyceride Quantification Kit (Cell Biolabs) following manufacturer instructions and normalizing to cell protein content using the BCA method.
Free fatty acid uptake was assessed using the fluorometric free fatty acid uptake Kit (Abcam) in Ctrl and Col I treated podocytes after 1 hour serum starvation. The uptake of FFA was analyzed using a fluorimeter (SpectraMax5, […]).

The target in the next series is T1, DDR1 (Homo sapiens, UniProt Q08345).
T1 construct: Differentiated human podocytes were serum starved for 16 hours followed by 18 hours treatment with 50 μg/mL collagen I; endogenous in cells; host or cells: conditionally immortalized human podocyte cell line (Saleem et al. 2002), differentiated
T1 sequence (Q08345 19-913): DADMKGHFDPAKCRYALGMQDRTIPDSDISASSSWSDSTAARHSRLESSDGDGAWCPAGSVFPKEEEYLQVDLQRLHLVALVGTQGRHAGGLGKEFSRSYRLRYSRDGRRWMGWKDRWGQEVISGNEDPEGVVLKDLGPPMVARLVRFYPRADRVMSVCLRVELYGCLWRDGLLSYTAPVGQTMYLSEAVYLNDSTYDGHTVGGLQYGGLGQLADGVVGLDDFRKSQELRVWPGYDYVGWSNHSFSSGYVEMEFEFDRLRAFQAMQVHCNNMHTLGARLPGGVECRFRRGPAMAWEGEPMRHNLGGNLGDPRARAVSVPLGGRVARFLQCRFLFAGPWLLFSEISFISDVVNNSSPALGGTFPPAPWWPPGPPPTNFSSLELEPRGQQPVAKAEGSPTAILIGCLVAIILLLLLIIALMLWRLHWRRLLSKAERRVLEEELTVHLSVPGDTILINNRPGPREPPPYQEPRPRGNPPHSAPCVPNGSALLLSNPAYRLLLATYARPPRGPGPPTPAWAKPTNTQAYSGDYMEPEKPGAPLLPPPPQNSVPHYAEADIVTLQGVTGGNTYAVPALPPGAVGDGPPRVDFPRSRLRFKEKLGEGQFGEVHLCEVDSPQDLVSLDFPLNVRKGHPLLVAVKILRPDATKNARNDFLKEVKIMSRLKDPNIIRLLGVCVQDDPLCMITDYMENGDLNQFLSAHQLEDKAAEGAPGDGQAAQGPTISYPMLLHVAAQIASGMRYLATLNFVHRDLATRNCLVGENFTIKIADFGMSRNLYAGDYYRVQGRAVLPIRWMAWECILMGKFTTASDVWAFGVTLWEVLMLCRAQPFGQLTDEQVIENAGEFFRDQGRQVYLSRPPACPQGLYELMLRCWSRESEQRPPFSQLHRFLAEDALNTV
Nature of the series: DDR1 activation in human podocytes treated with collagen (FIG. 2). It is filed as cell-based. The protocol:
as §1
Isolation of plasma membranes: Preparation of membrane pellets was performed by ultracentrifugation of cell pellets suspended in homogenization media (15 mM KCl, 1.5 mM MgCl2, 10 mM HEPES, 1 mM DTT) supplemented with protease inhibitors. Effective separation was verified by WB for Na-K ATPase.

The conditions of series [1]: cited from earlier work.
Series [2] concerns Col4a3−/− mice. Nature of the series: Mesangial expansion (PAS) and renal fibrosis (Picrosirius Red) in Col4a3-/- mice (Example 3, FIG. 6). The following applies: treated vs untreated Col4a3−/− mice; ezetimibe 5 mg/kg, ramipril 10 mg/kg, 4 weeks. It counts as in vivo, mouse. The protocol:
Assessment of mesangial expansion: Periodic acid-Schiff (PAS) staining of 4 μm-thick tissue sections was performed using a standard protocol. Twenty glomeruli per section were analyzed for mesangial expansion by semi quantitative analysis (scale 0-4) performed by two blinded independent investigators.
Picrosirius red staining: Paraffin-embedded sections (4 μm thick) were deparaffinized with xylene and a graded alcohol series. Sections were rinsed for 5 min in distilled water, stained for 1 hour with picrosirius red in saturated aqueous picric acid, examined under a light microscope and photomicrographs were taken. Histological images were visualized using a light microscope (Olympus BX 41, Tokyo, Japan) at 40× magnification and analyzed using Image J software.
The following experiment was performed to investigate which treatment, ezetimibe (EZ), ramipril (Ramp) or the combination of both drugs (EZ+Ramp), would best preserve renal function in Col4a3 knockout mice, all drugs were administered to 4-week-old Col4a3−/− mice for 4 weeks as follows: ezetimibe (Ez) was orally administered at a concentration of 5 mg/kg BW, ramipril was added to the drinking water at a concentration that would lead to a daily ramipril uptake of 10 mg/kg BW. All mice were sacrificed at 8 weeks of age. The following four groups of mice were analyzed: Col4a3^+/+, Col4a3^−/−+Ez, Col4a3^−/−+Ramp and Col4a3^−/−+Ez+Ramp.
PAS staining was performed to detect and quantify mesangial expansion, Picrossirius Red staining to detect and quantify renal fibrosis in treated compared to untreated Col4a3^−/− mice. […] Representative images for PAS staining are shown in FIG. 6A and of Picrosirius Red staining to detect fibrosis in […]. Bar graph quantifications for both are shown in FIGS. 6C and 6D, respectively.

In series [3] the test system is Col4a3−/− mice. Nature of the series: Renal function in Col4a3-/- mice treated with ezetimibe, ramipril or both (Example 1, FIG. 5). It counts as in vivo, mouse. An excerpt: Albumin/creatinine ratio: All albuminuria values are expressed as μg albumin/mg creatinine. Albumin/creatinine determined by ELISA (Bethyl Laboratories) for albumin detection and a biochemical assay based on the Jaffe method for creatinine detection (Stanbio) as previously described. Serology: Immediately prior to sacrifice, a blood sample was collected for the determination of BUN and lipid panel analysis in the comparative laboratory core facility of the University of Miami. Serum creatinine was determined by tandem mass spectrometry (UAB-UCSD O'Brien Core Center, University of Alabama). The following experiment was performed to investigate which treatment, ezetimibe (EZ), ramipril (Ramp) or the combination of both drugs (EZ+Ramp), would best preserve renal function in Col4a3 knockout mice, all drugs were administered to 4-week-old Col4a3−/− mice for 4 weeks as follows: ezetimibe (Ez) was orally administered at a concentration of 5 mg/kg BW, ramipril was added to the drinking water at a concentration that would lead to a daily ramipril uptake of 10 mg/kg BW. All mice were sacrificed at 8 weeks of age. The following four groups of mice were analyzed: Col4a3^+/+, Col4a3^−/−+Ez, Col4a3^−/−+Ramp and Col4a3^−/−+Ez+Ramp.

For series [4] the following is noted: cited from earlier work. This is another data set of the same source.
Series [5] concerns Col4a3−/− mice. Nature of the series: Renal cortex lipid content in Col4a3-/- mice (Example 4, FIG. 7). It counts as in vivo, mouse. The following applies: treated vs untreated Col4a3−/− mice; ezetimibe 5 mg/kg, ramipril 10 mg/kg, 4 weeks. The method, then: Determination of cholesterol content in kidney cortex: Tissue from kidney cortexes was homogenized in hypotonic buffer (10 mM HEPES pH7.0, 15 mM KCl, 1 mM MgCl2, 10 mM phosphatase inhibitors). Lipids from 100 μl of the homogenate were extracted with 1 ml of hexane:isopropanol (3:2, v/v), dried and reconstituted in 100 μl of isopropanol-NP40 (9:1, v/v). Tissue fractions not soluble in the organic solvent, were further dried, reconstituted in 8 M urea, and assayed for protein concentration using Pierce BCA protein assay kit (ThermoFisher Scientific, MA, USA). Total cholesterol from lipid extracts was determined by the enzymatic method as previously described (Robinet, P., Wang, Z., Hazen, S. L. & Smith, J. D. A simple and sensitive enzymatic method for cholesterol quantification in macrophages and foam cells. Journal of lipid research 51, 3364-3369, 2010). Briefly, endogenous peroxides present were eliminated by incubating samples and standards with catalase (Sigma-Aldrich, MO, USA), 45 U/ml final concentration, for 15 min at 37° C. […] The plates were incubated at 37° C. for 30 min and fluorescence was read at 530 nm (Ex) and 580 nm (Em) in a plate reader (SpectraMax M5, Molecular Devices, CA, USA). Cholesteryl esters (CE) quantification was based on the method described from Toshimi M, et al. Briefly, 25 μl of samples was mixed with 150 μl of free cholesterol decomposition reagent (45 U/ml catalase, 1 U/ml cholesterol oxidase) and incubated 2-4 h at 37° C., and then the final volume was brought up to 250 μl prior to determining free and total cholesterol remaining. Total cholesterol remaining was determined by mixing 50 μl of end product reaction with 50 μl of reagent A, as described above. Free cholesterol remaining was determined similarly, but without including cholesterol esterase in the reagent. CE was calculated by the formula CE=(TC−FC)×DF, where TC is the total cholesterol remaining, FC the free cholesterol remaining and DF the dilution factor, in this case, 10. Lipid content: Oil Red 0 staining was performed on frozen tissue sections and triglyceride content was determined on snap frozen kidney tissue as described above. The following experiment was performed to investigate which treatment, ezetimibe (EZ), ramipril (Ramp) or the combination of both drugs (EZ+Ramp), would best preserve renal function in Col4a3 knockout mice, all drugs were administered to 4-week-old Col4a3−/− mice for 4 weeks as follows: ezetimibe (Ez) was orally administered at a concentration of 5 mg/kg BW, ramipril was added to the drinking water at a concentration that would lead to a daily ramipril uptake of 10 mg/kg BW. All mice were sacrificed at 8 weeks of age. The following four groups of mice were analyzed: Col4a3^+/+, Col4a3^−/−+Ez, Col4a3^−/−+Ramp and Col4a3^−/−+Ez+Ramp.

[6] abbreviates: Col4a3−/− mice treated 4 weeks, ezetimibe 5 mg/kg, ramipril 10 mg/kg, vs untreated Col4a3−/−.
Where [7] appears, read: Col4a3−/− mice, 4 weeks treatment.

“Col I: collagen I (Corning), 50 μg/mL, used to treat human podocytes”: in the series on human podocytes (Col I treated human podocytes), the “cholesterol ester to total cholesterol ratio” value is “mildly decreased”, the esterified cholesterol content entry is reported as “increased” and the total cholesterol content result is given as “increased total cholesterol content”. In addition, the cellular triglyceride content result in the series with human podocytes (human podocytes after Col I treatment) was “increased”. Besides, the “number of lipid droplets per cell (BODIPY)” value in the series with human podocytes (human podocytes, 50 μg/mL collagen, 18 hours, vs Ctrl) was “increased lipid droplet content”. For the same compound, the “free fatty acid uptake” value with human podocytes (human podocytes, collagen I treated vs Ctrl) was “increased”. In addition, the “activation of DDR1 at the plasma membrane” value in the series with DDR1 (human podocytes, plasma membrane fraction) is recorded as “leads to activation of DDR1”. Also, the “DDR1 activation (pDDR1)” value with DDR1 (normal human podocytes) was “leads to DDR1 activation”.

On to `CCOC(=O)[C@H](CCc1ccccc1)N[C@@H](C)C(=O)N1[C@H](C(=O)O)C[C@@H]2CCC[C@@H]21` [ramipril, (2S,3aS,6aS)-1[(S)—N—[(S)-1-Carboxy-3-phenylpropyl]alanyl]octahydrocyclop-enta[b]pyrrole-2-carboxylic acid, 1-ethyl ester], for which, in series [1], the “solubility in polar organic solvents and buffered aqueous solutions” value is “soluble”. In the series on Col4a3−/− mice [2], the “mesangial expansion (PAS staining, score)” value was “significant reduction; also recorded: significantly reduced mesangial expansion” and the “renal fibrosis (Picrosirius Red staining)” value is “significant reduction; also recorded: significantly reduced”. Further, the “albumin/creatinine ratio (ACR)” value in the series with Col4a3−/− mice [3] (4-week-old Col4a3−/− mice treated 4 weeks, ezetimibe 5 mg/kg BW oral, ramipril 10 mg/kg BW in drinking water, vs untreated Col4a3−/−) is reported as “significant reduction in the albumin/creatinine ratio; also recorded: significant decrease in the albumin/creatinine ratio”. Also, in the series on Col4a3−/− mice [3] (setting [6]), the “serum BUN levels” value is given as “significant reduction in the serum BUN levels” and the serum creatinine levels result is given as “significant reduction in the serum creatinine levels”. Moreover, in the series on Col4a3−/− mice [3] (setting [7]), the “reduction of BUN levels, compared to ezetimibe alone” value is listed as “superior effect on reducing BUN levels” and the “reduction of serum creatinine, compared to ezetimibe alone” value is reported as “superior effect on reducing serum creatinine levels”. The blood cholesterol levels result in series [4] (general knowledge stated in the patent) is “little or no effect”. Moreover, in series [4] (hypertensive patients), the “peripheral arterial resistance and blood pressure” value was “reduction in blood pressure without a compensatory rise in heart rate”. In addition, the mortality entry in series [4] (patients with clinical signs of congestive heart failure after surviving an acute myocardial infarction) was “reduce mortality”. For the same compound, in the series with Col4a3−/− mice [5], the “esterified cholesterol (CE) content in kidney cortexes” value was “reduces the esterified cholesterol content; also recorded: significantly decreased” and the “triglyceride (TG) content in kidney cortexes” value is reported as “no effect on the Triglyceride content; also recorded: not observed”.
